The results in this text go back to patent US9440978B2, “Imidazolo-, oxazolo-, and thiazolopyrimidine modulators of TRPV1” (Janssen Pharmaceutica NV, priority 2007, dated 2016).

One assay deals with T1, human TRPV1 (Homo sapiens, UniProt Q8NER1).
T1 construct: expressed in transfected cells; host or cells: HEK293
Nature of the assay: Block of capsaicin-induced Ca2+ influx, human assay (hTRPV1/HEK293, FLIPR). Type of assay: cell-based. As to conditions: HEK293 cells transfected with human TRPV1; 150 nM capsaicin challenge; mean; > value = solubility limit in assay medium.

In another assay the target is T2, rat TRPV1 (Rattus norvegicus, UniProt O35433).
T2 construct: expressed in transfected cells; host or cells: HEK293
T2 sequence (O35433 whole entry): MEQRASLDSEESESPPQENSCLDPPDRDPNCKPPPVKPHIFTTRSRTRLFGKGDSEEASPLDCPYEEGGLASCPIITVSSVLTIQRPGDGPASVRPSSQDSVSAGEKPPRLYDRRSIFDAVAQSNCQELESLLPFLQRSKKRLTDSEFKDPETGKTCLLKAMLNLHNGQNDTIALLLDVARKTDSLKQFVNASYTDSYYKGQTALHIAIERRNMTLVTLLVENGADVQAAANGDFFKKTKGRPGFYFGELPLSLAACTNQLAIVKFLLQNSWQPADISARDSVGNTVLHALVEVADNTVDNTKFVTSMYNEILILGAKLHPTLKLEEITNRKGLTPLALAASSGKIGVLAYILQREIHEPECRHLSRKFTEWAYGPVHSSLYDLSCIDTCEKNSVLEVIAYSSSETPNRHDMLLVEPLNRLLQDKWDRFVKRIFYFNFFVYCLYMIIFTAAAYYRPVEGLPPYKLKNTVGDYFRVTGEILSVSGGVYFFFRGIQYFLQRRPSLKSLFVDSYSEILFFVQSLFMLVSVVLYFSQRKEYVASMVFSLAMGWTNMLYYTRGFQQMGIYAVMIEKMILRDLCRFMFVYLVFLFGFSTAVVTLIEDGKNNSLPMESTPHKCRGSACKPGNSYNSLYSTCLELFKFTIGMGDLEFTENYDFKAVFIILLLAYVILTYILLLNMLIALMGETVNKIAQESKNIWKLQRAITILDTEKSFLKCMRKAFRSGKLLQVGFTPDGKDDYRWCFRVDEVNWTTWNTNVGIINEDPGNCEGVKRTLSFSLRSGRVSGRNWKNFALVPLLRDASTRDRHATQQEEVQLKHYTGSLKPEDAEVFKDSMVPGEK
Nature of the assay: Block of capsaicin-induced Ca2+ influx, rat assay (rTRPV1/HEK293, FLIPR). Type of assay: cell-based. As to conditions: HEK293 cells transfected with rat TRPV1; capsaicin challenge; mean; > value = solubility limit in assay medium; read-out: Rat IC50. The method in brief: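 HEK293 cells expressing rat TRPV1, Fluo-3 loaded, preincubated 30 min with compound in 20 μM Ca2+ buffer (serial three-fold dilutions, usually from 10 μM, duplicate). Capsaicin-evoked fluorescence change over 100 s measured on FLIPR; IC50 by non-linear regression, averaged across runs.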

pIC50: −log10 of the molar value. Counter-ions that a name gives are not always drawn.

The term pIC50 denotes the negative decadic logarithm of the IC50, by convention in mol/L.

T1 sequence (Q8NER1 whole entry): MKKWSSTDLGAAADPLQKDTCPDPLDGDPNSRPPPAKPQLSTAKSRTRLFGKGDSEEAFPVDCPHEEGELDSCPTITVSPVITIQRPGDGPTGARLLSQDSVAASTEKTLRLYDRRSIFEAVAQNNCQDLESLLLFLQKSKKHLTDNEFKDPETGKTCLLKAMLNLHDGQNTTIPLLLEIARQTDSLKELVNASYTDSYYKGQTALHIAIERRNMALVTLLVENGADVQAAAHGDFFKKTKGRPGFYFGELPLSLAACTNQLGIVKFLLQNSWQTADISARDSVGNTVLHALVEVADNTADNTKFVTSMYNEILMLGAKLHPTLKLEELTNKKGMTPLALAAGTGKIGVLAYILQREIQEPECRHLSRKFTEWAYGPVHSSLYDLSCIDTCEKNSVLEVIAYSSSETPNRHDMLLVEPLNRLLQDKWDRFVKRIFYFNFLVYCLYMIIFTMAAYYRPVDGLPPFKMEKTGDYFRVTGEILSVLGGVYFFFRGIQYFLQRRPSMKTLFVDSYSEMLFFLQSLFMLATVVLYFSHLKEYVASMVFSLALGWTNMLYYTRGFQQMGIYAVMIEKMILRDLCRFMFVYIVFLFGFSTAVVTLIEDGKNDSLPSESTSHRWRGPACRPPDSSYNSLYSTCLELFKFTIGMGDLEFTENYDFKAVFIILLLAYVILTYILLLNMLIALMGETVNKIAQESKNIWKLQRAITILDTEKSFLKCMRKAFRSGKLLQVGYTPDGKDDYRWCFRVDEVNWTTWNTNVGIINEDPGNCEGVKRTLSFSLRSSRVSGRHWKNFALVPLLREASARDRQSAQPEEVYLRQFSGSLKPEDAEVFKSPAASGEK

Consider `FC(F)(F)c1ccc(Nc2nc(NC3CC3)nc3sc(Cc4c(Cl)cccc4Cl)nc23)cc1` [Example 78, N^5-Cyclopropyl-2-(2,6-dichloro-benzyl)-N^7-(4-trifluoromethyl-phenyl)-thiazolo[5,4-d]pyrimidine-5,7-diamine], for which the negative-log IC50 (pIC50) on human TRPV1 is 6.50; at rat TRPV1 it was 6.67.

As for `FC(F)(F)c1ccc(Nc2nc(NC3CCC3)nc3sc(Cc4c(Cl)cccc4Cl)nc23)cc1` [Example 79, N^5-Cyclobutyl-2-(2,6-dichloro-benzyl)-N^7-(4-trifluoromethyl-phenyl)-thiazolo[5,4-d]pyrimidine-5,7-diamine], the negative-log IC50 (pIC50) at human TRPV1 is 6.98; at rat TRPV1 it was 7.49.

Consider `CC(C)CN(CC(C)C)c1nc(Nc2ccc(C(F)(F)F)cc2)c2nc(Cc3c(Cl)cccc3Cl)sc2n1` [Example 80, 2-(2,6-Dichloro-benzyl)-N^5,N^5-diisobutyl-N^7-(4-trifluoromethyl-phenyl)-thiazolo[5,4-d]pyrimidine-5,7-diamine], for which the negative-log IC50 (pIC50) on human TRPV1 was 5.33; at rat TRPV1, 5.39.

Turning to `CC(C)CN1CCN(c2nc(Nc3ccc(C(F)(F)F)cc3)c3nc(Cc4c(Cl)cccc4Cl)sc3n2)CC1` [Example 83, [2-(2,6-Dichloro-benzyl)-5-(4-isobutyl-piperazin-1-yl)-thiazolo[5,4-d]pyrimidin-7-yl]-(4-trifluoromethyl-phenyl)-amine trifluoroacetic acid salt], the results for the pIC50 against human TRPV1 and at rat TRPV1 were 6.87 and 7.92, respectively.

Take `FC(F)(F)c1ccc(Nc2nc(NCc3ccccn3)nc3sc(Cc4c(Cl)cccc4Cl)nc23)cc1` [Example 84, 2-(2,6-Dichloro-benzyl)-N^5-pyridin-2-ylmethyl-N^7-(4-trifluoromethyl-phenyl)-thiazolo[5,4-d]pyrimidine-5,7-diamine trifluoroacetic acid salt]: the pIC50 against human TRPV1 was 6.58; at rat TRPV1 it was 7.42.

Turning to `FC(F)(F)c1ccc(Nc2nc(NCc3cccnc3)nc3sc(Cc4c(Cl)cccc4Cl)nc23)cc1` [Example 85, 2-(2,6-Dichloro-benzyl)-N^5-pyridin-3-ylmethyl-N^7-(4-trifluoromethyl-phenyl)-thiazolo[5,4-d]pyrimidine-5,7-diamine trifluoroacetic acid salt], the results for the pIC50 at human TRPV1 and at rat TRPV1 were 6.36 and 6.95, respectively.

As for `FC(F)(F)c1ccc(Nc2nc(NCc3ccncc3)nc3sc(Cc4c(Cl)cccc4Cl)nc23)cc1` [Example 86, 2-(2,6-Dichloro-benzyl)-N^5-pyridin-4-ylmethyl-N^7-(4-trifluoromethyl-phenyl)-thiazolo[5,4-d]pyrimidine-5,7-diamine trifluoroacetic acid salt], the pIC50 against human TRPV1 is 5.97; on rat TRPV1, 6.73.

On to `CC(Nc1nc(Nc2ccc(C(F)(F)F)cc2)c2nc(Cc3c(Cl)cccc3Cl)sc2n1)c1ccccn1` (stereo not shown) [Example 87, 2-(2,6-Dichlorobenzyl)-N^5-(1-pyridin-2-ylethyl)-N^7-[4-(trifluoromethyl)phenyl][1,3]thiazolo[5,4-d]pyrimidine-5,7-diamine], for which the values for the negative logarithm of the IC50 (pIC50) at human TRPV1 and at rat TRPV1 were 7.30 and 7.68, respectively.

Consider `CCN1CCCC1CNc1nc(Nc2ccc(C(F)(F)F)cc2)c2nc(Cc3c(Cl)cccc3Cl)sc2n1` (stereo not shown) [Example 88, 2-(2,6-Dichlorobenzyl)-N^5-[(1-ethylpyrrolidin-2-yl)methyl]-N^7-[4-(trifluoromethyl)phenyl][1,3]thiazolo[5,4-d]pyrimidine-5,7-diamine], for which the values for the pIC50 at human TRPV1 and at rat TRPV1 were 6.02 and 5.98, respectively.

For the compound `FC(F)(F)c1ccc(Nc2nc(NCC3CCCCN3)nc3sc(Cc4c(Cl)cccc4Cl)nc23)cc1` (stereo not shown) [Example 90, 2-(2,6-Dichlorobenzyl)-N^5-(piperidin-2-ylmethyl)-N^7-[4-(trifluoromethyl)phenyl][1,3]thiazolo[5,4-d]pyrimidine-5,7-diamine hydrochloride salt], the pIC50 is 5.22 on human TRPV1 and 5.01 at rat TRPV1.

Take `FC(F)(F)c1ccc(Nc2nc(NCC3CCCNC3)nc3sc(Cc4c(Cl)cccc4Cl)nc23)cc1` (stereo not shown) [Example 91, 2-(2,6-Dichlorobenzyl)-N^5-(piperidin-3-ylmethyl)-N^7-[4-(trifluoromethyl)phenyl][1,3]thiazolo[5,4-d]pyrimidine-5,7-diamine hydrochloride salt]: the results for the pIC50 against human TRPV1 and at rat TRPV1 were 5.39 and 5.50, respectively.

`FC(F)(F)c1ccc(Nc2nc(NCC3CCNCC3)nc3sc(Cc4c(Cl)cccc4Cl)nc23)cc1` [Example 92, 2-(2,6-Dichlorobenzyl)-N^5-(piperidin-4-ylmethyl)-N^7-[4-(trifluoromethyl)phenyl][1,3]thiazolo[5,4-d]pyrimidine-5,7-diamine hydrochloride salt]: the negative-log IC50 (pIC50) against human TRPV1 is 5.33; at rat TRPV1 it was 5.36.

With `FC(F)(F)c1cnc(Nc2ncnc3sc(Cc4c(Cl)cccc4Cl)nc23)cn1` [Example 93, [2-(2,6-Dichloro-benzyl)-thiazolo[5,4-d]pyrimidin-7-yl]-(5-trifluoromethyl-pyrazin-2-yl)-amine], the negative-log IC50 (pIC50) is 6.56 against human TRPV1 and 6.64 at rat TRPV1.

With `FC(F)(F)c1ccc(Nc2ncnc3sc(Cc4c(Cl)cccc4Cl)nc23)nc1` [Example 94, [2-(2,6-Dichloro-benzyl)-thiazolo[5,4-d]pyrimidin-7-yl]-(5-trifluoromethyl-pyridin-2-yl)-amine], the negative logarithm of the IC50 (pIC50) at human TRPV1 was 6.03; on rat TRPV1, 6.61.

Take `FC(F)(F)c1ccc(Nc2ncnc3sc(Cc4ccccc4C(F)(F)F)nc23)nc1` [Example 95, 2-[2-(Trifluoromethyl)benzyl]-N-[5-(trifluoromethyl)pyridin-2-yl][1,3]thiazolo[5,4-d]pyrimidin-7-amine]: the negative-log IC50 (pIC50) was 6.53 on human TRPV1 and 6.92 at rat TRPV1.

As for `FC(F)(F)c1ccc(Nc2ncnc3sc(Cc4ccccc4Cl)nc23)nc1` [Example 96, [2-(2-Chloro-benzyl)-thiazolo[5,4-d]pyrimidin-7-yl]-(5-trifluoromethyl-pyridin-2-yl)-amine], the figures for the pIC50 on human TRPV1 and on rat TRPV1 were 6.33 and 6.65, respectively.

As to `Cc1nc(Nc2ccc(C(F)(F)F)cn2)c2nc(Cc3c(Cl)cccc3Cl)sc2n1` [Example 97, [2-(2,6-Dichloro-benzyl)-5-methyl-thiazolo[5,4-d]ovrimidin-7-yl]-(5-trifluoromethyl-hyridin-2-yl)-amine], the negative logarithm of the IC50 (pIC50) at human TRPV1 was 5.99; on rat TRPV1 it was 6.80.

In the case of `N#Cc1ccccc1Cc1nc2c(Nc3ccc(C(F)(F)F)cc3)ncnc2s1` [Example 100, 2-[7-(4-Trifluoromethyl-phenylamino)-thiazolo[5,4-d]pyrimidin-2-ylmethyl]-benzonitrile], the negative-log IC50 (pIC50) was 6.90 at human TRPV1 and 7.21 at rat TRPV1.

Consider `COc1nc(Nc2ccc(C(F)(F)F)cc2)c2nc(Cc3c(Cl)cccc3Cl)sc2n1` [Example 101, [2-(2,6-Dichloro-benzyl)-5-methoxy-thiazolo[5,4-d]pyrimidin-7-yl]-(4-trifluoromethyl-phenyl)-amine], for which the pIC50 on human TRPV1 was 6.68; at rat TRPV1, 7.47.

On to `CC(C)Oc1nc(Nc2ccc(C(F)(F)F)cc2)c2nc(Cc3c(Cl)cccc3Cl)sc2n1` [Example 102, [2-(2,6-Dichloro-benzyl)-5-isopropoxy-thiazolo[5,4-d]pyrimidin-7-yl]-(4-trifluoromethyl-phenyl)-amine], for which the values for the negative-log IC50 (pIC50) at human TRPV1 and at rat TRPV1 were 6.73 and 7.13, respectively.
